Columns and labels:
Format in all cases: cell-based
knockout treated cells = assay: Microscopy tile embeddings (deep neural network, UMAP) of WT and KO lines with treatment; conditions: UMAP projector calculated on untreated WT/KO tile embeddings
Description: FIG. 16C depicts an example embedding showing phenotypic distinction between wild type and knockout cells. FIG. 16C was generated by projecting embeddings extracted from a deep neural network down to two dimensions using UMAP. The neural network model was trained in a supervised manner to discriminate between sick/healthy based on labels for WT and KO lines respectively. Each point in the figure corresponds to a tile of the original microscopy image. The points represented here are only for the WT and KO groups without treatment.
FIG. 16D depicts the use of embeddings for validating known effects of treatments (e.g., rapamycin and everolimus). The following figure uses the same UMAP projector calculated on tile embeddings of WT/KO with no treatment to project the embeddings representing treatment groups into the same space.

[1] = test system: HepG2 and A549 cell lines; assay: Cell painting morphological manifold of compound-treated cancer cell lines (deep CNN); conditions: for clustering in morphological embedding (FIGS. 18A, 18B): 48 hours incubation, held-out versus training compounds; for clustering in manifold by phenotypic effect (FIG. 16H): previously unseen drugs versus previously seen drugs
Protocol: Immortalized cancer cell lines A549 and HepG2 were cultured in T150 flasks and harvested above 60% confluency. The cells were counted on a cell counter (Countess by ThermoFisher) the cell suspension was adjusted to 2000 cells per 50 μL well of a 384 well PDL coated Cell Carrier Ultra (Perkin Elmer) plates. The cells were incubated overnight in a 37 C 5% CO2 incubator and then dosed with our compound collection (at multiple concentrations in log space) in DMSO with a Labcyte Echo from Echo qualified PP2.0 plates. After dosing the cells were incubated for 48 hours in a 37 C 5% CO2 incubator. After the incubation period the plates were stained with Mito-tracker by removing the cell media, washing with PBS on a EL406 plate washer (Biotek), then adding diluted 1 mM stock concentration mitotracker dye in cell culture media to each well with a PRIME liquid handler (HighRes Biosciences). The plates were incubated for 30 minutes and then washed 1× with PBS. Formaldehyde was added to each well of each plate to fix the cells and incubated for 20 minutes and then washed 5× with PBS. 0.1% Triton in PBS was added to the plates and incubated for 15 minutes then washed 2× with PBS and a stain mixture was added to all wells of the plates. The stain mixture included 5 μg/mL Hoechst, 100 μg/mL Concanavalin Alexa Fluor 488 conjugate, 3 uM SYTO 14 green fluorescent nucleic acid stain, 5 uL/mL Phalloidin/Alexa Fluor 568 conjugate, and 1.5 μg/mL Wheat Germ Agglutinin Alexa Fluor 555 conjugate in HBSS with BSA. The plates were incubated for 30 minutes with the stain solution and then washed 4× with PBS. The plates were then imaged in a Perkin Elmer Opera Phenix microscope with 16 images taken per well for all stain wavelengths.
This is a classification task where the goal is to identify which compound was used to perturb the cells in a single well. A single well is split into 16 different fields of views (FOV) which are captured by the microscope. The raw FOV images were preprocessed by correcting the illumination. The FOV images were further cropped into smaller squares so that we can fit into memory during the training of deep convolutional neural network (CNN) models. The Hoechst channel was used to detect the nucleus and then make a square around the detected nucleus.
A deep convolutional neural network was implemented to model the classification task. It was a 150-way classification task. The residual networks (ResNets) was used as the base feature extractor network with a fully connected linear network on top to perform the classification. Standard augmentations were implemented which improved the performance and removed experimental biases. For example, intensity based augmentations like gamma contrast are helpful in removing experimental biases (batch effects). For the mechanism of action identification, some compounds were omitted (˜30 compounds out of 150) during training. During inference, the unseen compounds were embedded closer to the expected mechanism of action cluster along with the seen compounds. FIG. 18A depicts example embeddings with similar drugs clustered more closely together. Here, lovastatin is a held out, unseen drug whereas atorvastatin is a drug used for training. […] In accordance with the methodology of Example 11 (e.g., FIGS. 16A-16D) described above, using embeddings/predictions, the candidate therapy is analyzed to predict its effect (e.g., effect in reverting disease phenotype back to healthy), and further validated in vitro.

[2] = test system: human cortical excitatory neurons; assay: Neuropaint high-content imaging of neurons exposed to small molecule compounds, ML embeddings; conditions: 3 concentrations; DAPI, LV-Syn-GFP, Actin, Mito-tracker stains
Protocol: DoxNGN2 iPSCs were plated at two different seeding densities (1k and 6k cells) and further differentiated into human cortical excitatory neurons. Different populations of neurons were exposed to 3 different concentrations of small molecules including rotenone, everolimus, loxapine, phorbol 12-myristate 13-acetate (PMA), staurosporine, rapamycin, BIO, and blebbistatin. Neurons were also treated with controls including phosphate buffered saline and dimethyl sulfoxide (DMSO). Following treatment, phenotypic assay data was captured from the treated neurons by performing high-content imaging (e.g., Neuropaint).

Compound | clustering in morphological embedding (FIGS. 18A, 18B) [1] | clustering in manifold by phenotypic effect (FIG. 16H) [1] | also measured
CO[C@H]1C[C@@H]2CC[C@@H](C)[C@@](O)(O2)C(=O)C(=O)N2CCCC[C@H]2C(=O)O[C@H]([C@H](C)C[C@@H]2CC[C@@H](OCCO)[C@H](OC)C2)CC(=O)[C@H](C)/C=C(\C)[C@@H](O)[C@@H](OC)C(=O)[C@H](C)C[C@H](C)/C=C/C=C/C=C/1C [everolimus] |  |  | shift of knockout cells in image embedding (FIG. 16D) (knockout treated cells): induces knockout treated cells to revert back towards a healthy phenotype
CC[C@H](C)C(=O)O[C@H]1C[C@@H](C)C=C2C=C[C@H](C)[C@H](CC[C@@H]3C[C@@H](O)CC(=O)O3)[C@H]21 [lovastatin] | clustered close together | clustered proximity to previously seen drugs | 
COc1ccc(-c2ccc3c(N4CCOC[C@@H]4C)nc(N4CCOC[C@@H]4C)nc3n2)cc1CO [AZD 8055] |  | clustered proximity to previously seen drugs | 
COc1cc(C(=O)O)ccc1NC(=O)[C@@H]1N[C@@H](CC(C)(C)C)[C@](C#N)(c2ccc(Cl)cc2F)[C@H]1c1cccc(Cl)c1F [RG7388] |  | clustered proximity to previously seen drugs | 
CN[C@@H]1C[C@H]2O[C@@](C)([C@@H]1OC)n1c3ccccc3c3c4c(c5c6ccccc6n2c5c31)C(=O)NC4 [staurosporine] |  |  | location of treated neurons in embeddings (FIG. 10C) [2]: located separate from neurons treated with other small compounds
CC(C)c1c(C(=O)Nc2ccccc2)c(-c2ccccc2)c(-c2ccc(F)cc2)n1CC[C@@H](O)C[C@@H](O)CC(=O)O [atorvastatin] | clustered close together |  | 
